What was measured:
human cathepsin K = human cathepsin K (UniProt P43236); test: Cathepsin K Assay (hrbCat K); format: biochemical; details: human cathepsin K 0.4 nM, Z-Leu-Arg-AMC 8 μM, pH 5.5, 15 min preincubation; read-out: hrbCat K IP
How it was run: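 Human cathepsin K (0.4 nM) in pH 5.5 MES buffer with EDTA, DTT and 10% DMSO was preincubated 15 min at room temperature with compound from a ⅓ dilution series (500-0.025 μM DMSO stocks). Z-Leu-Arg-AMC (8 μM) was then added, and AMC release was followed fluorometrically (Ex 360/Em 460 nm) for 30 min; inhibition was fitted to a dose-response model.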

human cathepsin F = target: T1, human cathepsin F (Homo sapiens, UniProt Q9UBX1); test: Cathepsin F assay (hCat F); format: biochemical; details: human cathepsin F 10 nM, Z-Phe-Arg-AMC 8 μM, pH 5.5, 15 min preincubation; read-out: hCat F IP
T1 sequence (Q9UBX1 271-484): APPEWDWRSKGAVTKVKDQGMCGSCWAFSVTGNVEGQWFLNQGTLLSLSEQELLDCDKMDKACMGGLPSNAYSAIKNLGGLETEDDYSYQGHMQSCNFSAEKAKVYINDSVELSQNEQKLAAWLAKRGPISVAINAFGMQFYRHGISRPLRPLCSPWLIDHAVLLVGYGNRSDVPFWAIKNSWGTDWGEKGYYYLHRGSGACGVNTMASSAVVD
How it was run: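 Fluorogenic read-out: cleavage of Z-Phe-Arg-AMC (8 μM in added buffer) was followed at Ex 360/Em 460 nm for 20 min, with dose-response fitting of percent inhibition. Before substrate addition, 10 nM human enzyme was incubated 15 min at room temperature with compounds (DMSO stocks 500–0.025 μM) in pH 5.5 MES/EDTA/DTT buffer containing 10% DMSO.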

N#CC1(NC(=O)[C@@H]2CCCC[C@H]2c2oc(-c3cccc(OC(F)(F)F)c3)nc2-c2ccc(N3CCS(=O)(=O)CC3)cc2)CC1 [Example 86, (1R,2R)-N-(1-cyanocyclopropyl)-2-(4-(4-(1,1-dioxidothiomorpholino)phenyl)-2-(3-(trifluoromethoxy)phenyl)oxazol-5-yl)cyclohexanecarboxamide]
IC50 (human cathepsin K): 2.62 nM | IC50 (human cathepsin F): 1830 nM

N#Cc1ccccc1-c1nc(-c2ccc(N3CCS(=O)(=O)CC3)cc2)c([C@@H]2CCCC[C@H]2C(=O)NC2(C#N)CC2)o1 [Example 105, (1R,2R)-N-(1-cyanocyclopropyl)-2-(2-(2-cyanophenyl)-4-(4-(1,1-dioxidothiomorpholino)phenyl)oxazol-5-yl)cyclohexanecarboxamide]
IC50 (human cathepsin K): 2.4 nM | IC50 (human cathepsin F): 1920 nM

CC1(c2nc(-c3ccc(N4CCS(=O)(=O)CC4)cc3)c([C@@H]3CCCC[C@H]3C(=O)NC3(C#N)CC3)o2)CC[Si](C)(C)CC1 [Example 53, (1R,2R)-N-(1-cyanocyclopropyl)-2-(4-(4-(1,1-dioxidothiomorpholino)phenyl)-2-(1,1,4-trimethylsilinan-4-yl)oxazol-5-yl)cyclohexanecarboxamide]
IC50 (human cathepsin K): 1.93 nM | IC50 (human cathepsin F): 582 nM

CC1CC1(C#N)NC(=O)[C@@H]1CCCC[C@H]1c1oc(-c2ccc(F)cc2)nc1-c1ccc(N2CCS(=O)(=O)CC2)cc1 (single isomer, unassigned) [Example 134, (1R,2R)-N-((2S or 2R)-1-cyano-2-methylcyclopropyl)-2-(4-(4-(1,1-dioxidothiomorpholino)phenyl)-2-(4-fluorophenyl)oxazol-5-yl)cyclohexanecarboxamide]
IC50 (human cathepsin K): 2900 nM | IC50 (human cathepsin F): ≥ 10000 nM

N#CC1(NC(=O)[C@@H]2CCCC[C@H]2c2oc(-c3ccccc3Cl)nc2-c2ccc(N3CCS(=O)(=O)CC3)cc2)CC1 [Example 75, (1R,2R)-2-(2-(2-chlorophenyl)-4-(4-(1,1-dioxidothiomorpholino)phenyl)oxazol-5-yl)-N-(1-cyanocyclopropyl) cyclohexanecarboxamide]
IC50 (human cathepsin K): 2.06 nM | IC50 (human cathepsin F): 865 nM

N#CC1(NC(=O)[C@@H]2CCCC[C@H]2c2oc(-c3cccc(C4CC4)c3)nc2-c2ccc(N3CCS(=O)(=O)CC3)cc2)CC1 [Example 77, (1R,2R)-N-(1-cyanocyclopropyl)-2-(2-(3-cyclopropylphenyl)-4-(4-(1,1-dioxidothiomorpholino)phenyl)oxazol-5-yl)cyclohexanecarboxamide]
IC50 (human cathepsin K): 0.65 nM | IC50 (human cathepsin F): 533 nM

CC(C)(C)c1nc(-c2ccc(N3CCS(=O)(=O)CC3)cc2)c([C@@H]2CC[C@H](F)C[C@H]2C(=O)NC2(C#N)CC2)o1 [Example 147, (1R,2R,5S)-2-(2-(tert-butyl)-4-(4-(1,1-dioxidothiomorpholino)phenyl)oxazol-5-yl)-N-(1-cyanocyclopropyl)-5-fluorocyclohexane-carboxamide]
IC50 (human cathepsin K): 1.5 nM | IC50 (human cathepsin F): 2410 nM

N#CC1(NC(=O)[C@@H]2CCCC[C@H]2c2oc(-c3ccc(Cl)cc3)nc2-c2ccc(N3CCS(=O)(=O)CC3)cc2)CC1 [Example 38, (1R,2R)-2-(2-(4-chlorophenyl)-4-(4-(1,1-dioxidothiomorpholino)phenyl)oxazol-5-yl)-N-(1-cyanocyclopropyl) cyclohexanecarboxamide]
IC50 (human cathepsin K): 1.28 nM | IC50 (human cathepsin F): 308 nM

Cc1nc(-c2ccc(N3CCS(=O)(=O)CC3)cc2)c([C@@H]2CCC(F)(F)C[C@H]2C(=O)NC2(C#N)CC2)s1 [Example 59, (1R,2R)-N-(1-cyanocyclopropyl)-2-(4-(4-(1,1-dioxidothiomorpholino)phenyl)-2-methylthiazol-5-yl)-5,5-difluorocyclohexane-carboxamide]
IC50 (human cathepsin K): 0.51 nM | IC50 (human cathepsin F): 389 nM

COc1cccc(-c2nc(-c3ccc(N4CCS(=O)(=O)CC4)cc3)c([C@@H]3CCCC[C@H]3C(=O)NC3(C#N)CC3)o2)c1 [Example 71, (1R,2R)-N-(1-cyanocyclopropyl)-2-(4-(4-(1,1-dioxidothiomorpholino)phenyl)-2-(3-methoxyphenyl)oxazol-5-yl)cyclohexanecarboxamide]
IC50 (human cathepsin K): 1.59 nM | IC50 (human cathepsin F): 511 nM

N#CC1(NC(=O)[C@@H]2CCCC[C@H]2c2oc(N3CCC(F)(F)CC3)nc2-c2ccc(N3CCS(=O)(=O)CC3)cc2)CC1 [Example 4, (1R,2R)—N-(1-Cyanocyclopropyl)-2-(2-(4,4-difluoropiperidin-1-yl)-4-(4-(1,1-dioxidothiomorpholino)phenyl)oxazol-5-yl)cyclohexanecarboxamide]
IC50 (human cathepsin K): 6.37 nM | IC50 (human cathepsin F): ≥ 10000 nM

N#CC1(NC(=O)[C@@H]2CCCC[C@H]2c2oc(-c3ncccc3C(F)(F)F)nc2-c2ccc(N3CCS(=O)(=O)CC3)cc2)CC1 [Example 80, (1R,2R)-N-(1-cyanocyclopropyl)-2-(4-(4-(1,1-dioxidothiomorpholino)phenyl)-2-(3-(trifluoromethyl)pyridin-2-yl)oxazol-5-yl)cyclohexanecarboxamide]
IC50 (human cathepsin K): 2.43 nM | IC50 (human cathepsin F): 1490 nM

CC(C)(C)c1nc(-c2ccc(N3CCS(=O)(=O)CC3)cc2)c([C@@H]2CCC(F)(F)C[C@H]2C(=O)NC2(C#N)CC2)o1 [Example 19, (1R,2R)-2-(2-(tert-butyl)-4-(4-(1,1-dioxidothiomorpholino)phenyl)oxazol-5-yl)-N-(1-cyanocyclopropyl)-5,5-difluorocyclohexane-carboxamide]
IC50 (human cathepsin K): 0.54 nM | IC50 (human cathepsin F): 81 nM

N#CC1(NC(=O)[C@@H]2CCCC[C@H]2c2oc(-c3ccc(F)cc3)nc2-c2ccc(N3CCS(=O)(=O)CC3)cc2)CC1 [Example 7, (1R,2R)—N-(1-Cyanocyclopropyl)-2-{4-[4-(1,1-dioxo-1λ^6-thiomorpholin-4-yl)phenyl]-2-(4-fluorophenyl)-1,3-oxazol-5-yl}cyclohexanecarboxamide]
IC50 (human cathepsin K): 1.49 nM | IC50 (human cathepsin F): 840 nM

CC(C)[C@@H](C#N)NC(=O)[C@@H]1CC(F)(F)CC[C@H]1c1oc(C(F)(F)C(F)(F)F)nc1-c1ccc(C(=O)N2CCOCC2)cc1 [Example 148, (1R,2R)-N-((S)-1-cyano-2-methylpropyl)-5,5-difluoro-2-(4-(4-(morpholine-4-carbonyl)phenyl)-2-(perfluoroethyl)oxazol-5-yl)cyclohexanecarboxamide]
IC50 (human cathepsin K): 1.03 nM | IC50 (human cathepsin F): 280 nM

N#Cc1ccc(-c2nc(-c3ccc(N4CCS(=O)(=O)CC4)cc3)c([C@@H]3CCCC[C@H]3C(=O)NC3(C#N)CC3)o2)cc1 [Example 74, (1R,2R)-N-(1-cyanocyclopropyl)-2-(2-(4-cyanophenyl)-4-(4-(1,1-dioxidothiomorpholino)phenyl)oxazol-5-yl)cyclohexanecarboxamide]
IC50 (human cathepsin K): 1.46 nM | IC50 (human cathepsin F): 645 nM

N#CC1(NC(=O)[C@@H]2CCCC[C@H]2c2oc(-c3ccc(F)cc3F)nc2-c2ccc(N3CCS(=N)(=O)CC3)cc2)CC1 [Example 106, (1R,2R)-N-(1-cyanocyclopropyl)-2-(2-(2,4-difluorophenyl)-4-(4-(1-imino-1-oxidothiomorpholino)phenyl)oxazol-5-yl)cyclohexanecarboxamide]
IC50 (human cathepsin K): 1.59 nM | IC50 (human cathepsin F): 192 nM

N#CC1(NC(=O)[C@@H]2CCCC[C@H]2c2oc(-c3ccc(Cl)cc3F)nc2-c2ccc(N3CCS(=O)(=O)CC3)cc2)CC1 [Example 94, (1R,2R)-2-(2-(4-chloro-2-fluorophenyl)-4-(4-(1,1-dioxidothiomorpholino)phenyl)oxazol-5-yl)-N-(1-cyanocyclopropyl) cyclohexanecarboxamide]
IC50 (human cathepsin K): 1.2 nM | IC50 (human cathepsin F): 380 nM

CC(C)(C)[C@@H](C#N)NC(=O)[C@@H]1CCCC[C@H]1c1oc(-c2ccc(F)cc2)nc1-c1ccc(N2CCS(=O)(=O)CC2)cc1 [Example 157, (1R,2R)-N-((S)-1-cyano-2,2-dimethylpropyl)-2-(4-(4-(1,1-dioxidothiomorpholino)phenyl)-2-(4-fluorophenyl)oxazol-5-yl)cyclohexanecarboxamide]
IC50 (human cathepsin K): 289 nM | IC50 (human cathepsin F): 2330 nM

CC(C)[C@@H](C#N)NC(=O)[C@@H]1CCCC[C@H]1c1oc(-c2ccc(F)cc2)nc1-c1ccc(N2CC[S+]([O-])CC2)cc1 [Example 151, (1R,2R)-N-((S)-1-cyano-2-methylpropyl)-2-(2-(4-fluorophenyl)-4-(4-(1-oxidothiomorpholino)phenyl)oxazol-5-yl)cyclohexanecarboxamide]
IC50 (human cathepsin K): 3.11 nM | IC50 (human cathepsin F): 628 nM

N#CC1(NC(=O)[C@@H]2CCCC[C@H]2c2oc(-c3cc(C(F)(F)F)ccn3)nc2-c2ccc(N3CCS(=O)(=O)CC3)cc2)CC1 [Example 83, (1R,2R)-N-(1-cyanocyclopropyl)-2-(4-(4-(1,1-dioxidothiomorpholino)phenyl)-2-(4-(trifluoromethyl)pyridin-2-yl)oxazol-5-yl)cyclohexanecarboxamide]
IC50 (human cathepsin K): 1.3 nM | IC50 (human cathepsin F): 4150 nM

N#CC1(NC(=O)[C@@H]2CCCC[C@H]2c2oc(-c3cccc(C(F)(F)F)n3)nc2-c2ccc(N3CCS(=O)(=O)CC3)cc2)CC1 [Example 100, (1R,2R)-N-(1-cyanocyclopropyl)-2-(4-(4-(1,1-dioxidothiomorpholino)phenyl)-2-(6-(trifluoromethyl)pyridin-2-yl)oxazol-5-yl)cyclohexanecarboxamide]
IC50 (human cathepsin K): 4.11 nM | IC50 (human cathepsin F): 2860 nM
